Experimental data: patent publication US9102582B2, “Method of producing alcohols” (priority 2009, dated 2015)

Legend:
[1] = cited from earlier work
[2] = solubility in water; conditions: same solubility expressed in moles

| SMILES | solubility in water [1] | solubility in water (molar) [2] |
| --- | --- | --- |
| CCBr [ethyl bromide] | 0.91 grams per 100 ml of water | 0.0835 moles per 1000 ml of water |
| CCCC(=O)OCC [ethyl butyrate] | 0.68 grams per 100 ml of water | 0.059 moles per 1000 ml of water |
| COC(=O)c1ccccc1 [methyl benzoate] | 0.157 grams per 100 ml of water | 0.001532 moles per 1000 ml of water |
| CBr [methyl bromide] | 0.09 grams per 100 ml of water | 0.0094 moles per 1000 ml of water |
